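All cell lines were grown in 96-well plates and treated with compound for 48 hours. Here, GI50 denotes the concentration required for 50% inhibition of growth. At the TGI there is no net growth.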
What was measured:
Test in all cases: NCI anticancer screen, dose series, 48 h
786-0 renal = test system: 786-0 renal
A498 renal = test system: A498 renal
A549 NSCLC = test system: A549 NSCLC
ACHN renal = test system: ACHN renal
BT-549 breast = test system: BT-549 breast
CAKI-1 renal = test system: CAKI-1 renal
CCRF-CEM leukemia = test system: CCRF-CEM leukemia
COLO 205 colon = test system: COLO 205 colon
DU-145 prostate = test system: DU-145 prostate
EKVX NSCLC = test system: EKVX NSCLC
HCC-2998 colon = test system: HCC-2998 colon
HCT-116 colon = test system: HCT-116 colon
HCT-15 colon = test system: HCT-15 colon
HL-60(TB) leukemia = test system: HL-60(TB) leukemia
HOP-62 NSCLC = test system: HOP-62 NSCLC
HOP-92 NSCLC = test system: HOP-92 NSCLC
HS 578T breast = test system: HS 578T breast
HT29 colon = test system: HT29 colon
IGROV1 ovarian = test system: IGROV1 ovarian
K-562 leukemia = test system: K-562 leukemia
KM12 colon = test system: KM12 colon
LOX IMVI melanoma = test system: LOX IMVI melanoma
MALME-3M melanoma = test system: MALME-3M melanoma
MCF7 breast = test system: MCF7 breast
MDA-MB-435 = test system: MDA-MB-435
MDA-N = test system: MDA-N
MOLT-4 leukemia = test system: MOLT-4 leukemia
NCI-H226 lung = test system: NCI-H226 lung
NCI-H23 lung = test system: NCI-H23 lung
NCI-H460 lung = test system: NCI-H460 lung
NCI-H522 lung = test system: NCI-H522 lung
NCI/ADR-RES ovarian = test system: NCI/ADR-RES ovarian
OVCAR-3 ovarian = test system: OVCAR-3 ovarian
OVCAR-4 ovarian = test system: OVCAR-4 ovarian
OVCAR-5 ovarian = test system: OVCAR-5 ovarian
OVCAR-8 ovarian = test system: OVCAR-8 ovarian
PC-3 prostate = test system: PC-3 prostate
RPMI-8226 leukemia = test system: RPMI-8226 leukemia
RXF 393 renal = test system: RXF 393 renal
SF-268 CNS = test system: SF-268 CNS
SF-295 CNS = test system: SF-295 CNS
SF-539 CNS = test system: SF-539 CNS
SK-MEL-2 melanoma = test system: SK-MEL-2 melanoma
SK-MEL-28 melanoma = test system: SK-MEL-28 melanoma
SK-MEL-5 melanoma = test system: SK-MEL-5 melanoma
SK-OV-3 ovarian = test system: SK-OV-3 ovarian
SN12C renal = test system: SN12C renal
SNB-19 CNS = test system: SNB-19 CNS
SNB-75 CNS = test system: SNB-75 CNS
SR leukemia = test system: SR leukemia
SW-620 colon = test system: SW-620 colon
T-47D breast = test system: T-47D breast
TK-10 renal = test system: TK-10 renal
UACC-62 melanoma = test system: UACC-62 melanoma
UO-31 renal = test system: UO-31 renal

Which results are given for `COc1cc2cc(C(=O)Nc3cc(N)c4ccccc4c3CCCl)[nH]c2c(OC)c1OC`?
GI50 (786-0 renal): < 5 nM; TGI (786-0 renal): 1090 nM; GI50 (A498 renal): 27.1 nM; TGI (A498 renal): 190 nM; GI50 (A549 NSCLC): 116 nM; TGI (A549 NSCLC): > 50000 nM; GI50 (ACHN renal): 18.4 nM; TGI (ACHN renal): 130 nM; GI50 (BT-549 breast): 121 nM; TGI (BT-549 breast): 804 nM; GI50 (CAKI-1 renal): 19.3 nM; GI50 (CCRF-CEM leukemia): < 5 nM; TGI (CCRF-CEM leukemia): 188 nM; GI50 (COLO 205 colon): 69.4 nM; TGI (COLO 205 colon): 254 nM; GI50 (DU-145 prostate): 8.95 nM; TGI (DU-145 prostate): 339 nM; GI50 (EKVX NSCLC): 99.3 nM; TGI (EKVX NSCLC): 517 nM; GI50 (HCC-2998 colon): 9.22 nM; TGI (HCC-2998 colon): 34 nM; GI50 (HCT-116 colon): 17.7 nM; TGI (HCT-116 colon): 5830 nM; GI50 (HCT-15 colon): 38.2 nM; GI50 (HL-60(TB) leukemia): 36.1 nM; TGI (HL-60(TB) leukemia): 237 nM; GI50 (HOP-62 NSCLC): 24.4 nM; TGI (HOP-62 NSCLC): 165 nM; GI50 (HOP-92 NSCLC): 167 nM; TGI (HOP-92 NSCLC): 11800 nM; GI50 (HS 578T breast): 89.9 nM; TGI (HS 578T breast): > 50000 nM; GI50 (HT29 colon): 43.8 nM; TGI (HT29 colon): 12700 nM; GI50 (IGROV1 ovarian): 14.6 nM; TGI (IGROV1 ovarian): 3510 nM; GI50 (K-562 leukemia): 46.6 nM; TGI (K-562 leukemia): 2500 nM; GI50 (KM12 colon): 41.1 nM; TGI (KM12 colon): 667 nM; GI50 (LOX IMVI melanoma): 30.1 nM; TGI (LOX IMVI melanoma): 1530 nM; GI50 (MALME-3M melanoma): 119 nM; TGI (MALME-3M melanoma): 274 nM; GI50 (MCF7 breast): 8.69 nM; TGI (MCF7 breast): 374 nM; GI50 (MDA-MB-435): 48.3 nM; TGI (MDA-MB-435): 159 nM; GI50 (MDA-N): 56.8 nM; TGI (MDA-N): 219 nM; GI50 (MOLT-4 leukemia): 13.2 nM; GI50 (NCI-H226 lung): 115 nM; TGI (NCI-H226 lung): 308 nM; GI50 (NCI-H23 lung): 16.6 nM; TGI (NCI-H23 lung): 264 nM; GI50 (NCI-H460 lung): 9.13 nM; TGI (NCI-H460 lung): 39.6 nM; GI50 (NCI-H522 lung): 15.3 nM; TGI (NCI-H522 lung): 271 nM; GI50 (NCI/ADR-RES ovarian): 32.9 nM; TGI (NCI/ADR-RES ovarian): 1910 nM; GI50 (OVCAR-3 ovarian): 26.2 nM; GI50 (OVCAR-4 ovarian): 73.3 nM; TGI (OVCAR-4 ovarian): 325 nM; GI50 (OVCAR-5 ovarian): 53.3 nM; TGI (OVCAR-5 ovarian): 2130 nM; GI50 (OVCAR-8 ovarian): 19.1 nM; TGI (OVCAR-8 ovarian): 841 nM; GI50 (PC-3 prostate): 25.2 nM; TGI (PC-3 prostate): 1590 nM; GI50 (RPMI-8226 leukemia): < 21 nM; TGI (RPMI-8226 leukemia): 189 nM; GI50 (RXF 393 renal): 8.75 nM; TGI (RXF 393 renal): 21.9 nM; GI50 (SF-268 CNS): 17 nM; TGI (SF-268 CNS): 6870 nM; GI50 (SF-295 CNS): 16 nM; TGI (SF-295 CNS): > 16500 nM; GI50 (SF-539 CNS): 161 nM; TGI (SF-539 CNS): > 50000 nM; GI50 (SK-MEL-2 melanoma): 89.5 nM; TGI (SK-MEL-2 melanoma): 174 nM; GI50 (SK-MEL-28 melanoma): 92.3 nM; GI50 (SK-MEL-5 melanoma): 68.8 nM; TGI (SK-MEL-5 melanoma): 195 nM; GI50 (SK-OV-3 ovarian): 60.3 nM; GI50 (SN12C renal): 54.8 nM; TGI (SN12C renal): 611 nM; GI50 (SNB-19 CNS): 122 nM; TGI (SNB-19 CNS): > 10200 nM; GI50 (SNB-75 CNS): 65.6 nM; TGI (SNB-75 CNS): 202 nM; GI50 (SR leukemia): < 5 nM; TGI (SR leukemia): 80.4 nM; GI50 (SW-620 colon): 16 nM; TGI (SW-620 colon): > 18300 nM; GI50 (T-47D breast): 37.2 nM; TGI (T-47D breast): 237 nM; GI50 (TK-10 renal): 93.2 nM; TGI (TK-10 renal): 6360 nM; GI50 (UACC-62 melanoma): 71.7 nM; TGI (UACC-62 melanoma): 154 nM; GI50 (UO-31 renal): 35.3 nM; TGI (UO-31 renal): 41200 nM

Source: PubChem BioAssay (NCI)
